# In patent publication US20230067811A1, “MODULATING LYMPHATIC VESSELS IN NEUROLOGICAL DISEASE” (University of Virginia Patent Foundation, priority 2020, published 2023):
# System: 5×FAD mice
# Assay: ABETA Mab1 i.p. in 5×FAD mice with intact or ablated meningeal lymphatics: Aβ plaques, LAMP1, IBA1, CD68, fibrinogen
# Format: in vivo, mouse
# Method: Upon recovery, mice received intraperitoneal (i.p.) injections of ABETA Mab1 (a murine antibody against Aβ protofibrils) or the control murine IgG (mIgG) antibodies, each at a dose of 40 mg/kg. Antibodies were injected weekly for a total of four weeks. Additional steps of meningeal lymphatic vessel ablation or control interventions were followed by four weekly injections with antibodies. Mice were tested in the open field and Morris water maze.
# In another set of experiment 5×FAD mice of 3-3.5 months-old were injected (i.p.) with anti-Abeta antibody (ABETA Mab1) or mIgG (each at 40 mg/kg) following the exact same treatment regimen (FIG. 10A).
# Treatments with anti-Aβ monoclonal antibodies. ABETA Mab1 and respective control IgG2a (mIgG) antibodies were manufactured by Absolute Antibody Ltd., Oxford Centre for Innovation, United Kingdom. Anti-Aβ monoclonal antibodies and respective mIgG controls were administered via intraperitoneal (i.p.) injection, at a dose of 40 mg/kg. Antibody dosages are also specified in the main text, illustrated in schemes and in each figure legend. Alternatively, ABETA Mab1 and mIgG antibodies were injected directly into the CSF, following the methodology described in the next section.
# Meningeal lymphatic vessel ablation. Selective ablation of the meningeal lymphatic vessels was achieved by injection of Visudyne (Vis.) and consecutive transcranial photoconversion (photo.) steps following previously described methodology and regimens (Da Mesquita, S. et al. Functional aspects of meningeal lymphatics in ageing and Alzheimer's disease. Nature 560, 185-191, (2018); Louveau, A. et al. CNS lymphatic drainage and neuroinflammation are regulated by meningeal lymphatic vasculature. Nat Neurosci 21, 1380-1391, (2018)). Visudyne was reconstituted following manufacturer instructions, aliquoted and kept at −20° C. until further used. […] Each spot was irradiated with a light dose of 50 J/cm^2 at an intensity of 600 mW/cm^2 for a total of 83 s. […]
# Immunohistochemistry, imaging and quantifications. […]
# [1] = 5×FAD mice with reduced meningeal lymphatic drainage
substance,measurement,setting,value
verteporfin [Visudyne],brain coverage by LAMP1+ dystrophic neurites,5×FAD mice with dysfunctional versus intact meningeal lymphatics,significantly increased
same,fibrinogen levels in the brain,[1],increased fibrinogen levels
same,"myeloid cell activation (IBA1+ coverage, peri-Aβ plaque IBA1+ cells, CD68 on IBA1+ cells)",[1],aberrant activation of myeloid cells
